pIC50: −log10 of the molar value.
Assays:
[1] = Plasma stability, human plasma (K2EDTA); assay type: in vitro ADME
Experimental: (§1) Individual stock solutions of propantheline and lovastatin were prepared at 10 mM in DMSO and were further diluted to 2 mM with DMSO.
(§2) Frozen matrices (Balb/c mouse, Wistar Han rat, Beagle dog, and human plasma containing K2EDTA as anti-coagulant) were thawed and centrifuged at 3100 rpm for 10 minutes at 4° C. to remove particulates. The lipid layer was then removed, and the supernatant was transferred to a new tube without disturbing the pellet. After the matrices were incubated at 37° C. for at least 10 minutes, the pH of each matrix was adjusted to pH 7.4, using 10% phosphoric acid or 1N sodium hydroxide as necessary. Test and control article stock solutions were spiked (2 μL) into matrix (1.998 mL) and mixed to final assay concentration of […]. Duplicate 30-μL aliquots of spiked plasma were transferred to matrix tubes in 96-well plate immediately after spiking for timepoints of 0, 30, 60, 120, 240, and 360 minutes. These tubes were then incubated at 37° C. with shaking and at each timepoint, the corresponding tubes containing samples were quenched with 180 μL of cold acetonitrile containing the internal standards. The quenched samples were vortex-mixed briefly and stored refrigerated. After the final time point (360 minutes), the plates with all quenched samples were vortex-mixed for 10 minutes and then centrifuged at 3100 rpm for 10 minutes at 4° C. to sediment the precipitated protein. The supernatant (50 μL) was transferred to a clean 96-well plate and diluted with 100 μL of water. The plates were stored refrigerated until analysis.
(§3) Data Analysis: Peak area ratios for IS-normalized test article and control article counts were used to calculate the percent remaining relative to the time zero (T0) value. As appropriate, results were plotted and further analyzed to calculate half-life (T1/2) values.
(§4) Mean peak area ratios were used to calculate the % remaining relative to the T0 value:
(§5) In this study, human, cynomolgus monkey, beagle dog, wistar hannover rat, and balb/c plasma stability was determined. Table 28 describes the results of the human plasma stability at 2 μM concentration and anti-coagulant K2-EDTA from 10 to 120 min. Table 29 describes the results of the cynomolgus monkey plasma stability at 2 μM concentration and anti-coagulant K2-EDTA. Table 30 describes the results of the beagle dog plasma stability at 2 μM concentration and anti-coagulant K2-EDTA. Table 31 describes the results of the wistar hannover rat plasma stability at 2 μM concentration and anti-coagulant K2-EDTA. Table 32 describes the results of the balb/c plasma stability at 2 μM concentration and anti-coagulant K2-EDTA.

[2] = Plasma stability, cynomolgus monkey plasma (K2-EDTA); assay type: in vitro ADME
Experimental: as §1, §2, §3, §4, §5

[3] = Plasma stability, beagle dog plasma (K2EDTA); assay type: in vitro ADME
Experimental: as §1, §2, §3, §4, §5

[4] = Plasma stability, rat plasma (Wistar Han / wistar hannover; Table 5 head SD Rat); assay type: in vitro ADME; details: Wistar Hannover, rat, plasma, pH 7.4
Experimental: as §1, §2, §3, §4, §5

[5] = Plasma stability, mouse plasma (Balb/c; Table 5 head CD-1 Mouse); assay type: in vitro ADME; details: BALB/c, mouse, plasma, pH 7.4
Experimental: as §1, §2, §3, §4, §5

[6] = as above; assay type: in vitro ADME; details: 2 μM
[7] = system: phospho-ERK in A549 (KRAS G12S) cells; test: Cell-based pERK (pERK:tERK) in A549 cells
Outline: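 Readout was pERK versus tERK by Western blot with IRDye-labelled secondary antibodies, imaged and quantified on a LI-COR Odyssey. Lysates were loaded at 1 mg/mL protein after Bradford estimation.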

[8] = system: phospho-MEK in A549 cells; test: Cell-based pMEK (pMEK:tMEK, CRAF bypass) in A549 cells; details: 2 h, pMEK to total MEK normalized to DMSO control
Outline: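 Cells (A549 or A375) exposed 2 h to compounds at varying concentrations in duplicate, then lysed; lysates set to 1.5 mg/mL for pMEK by quantitative Western (Jess). Phospho-MEK/total MEK ratio normalized to DMSO control.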

[9] = Kinetic solubility (PBS pH 7.4; 4 hr); assay type: physicochemical; details: PBS pH = 7.4; 4 hr (Table 8)
Experimental: The plates were shaken for 4 h at room temperature in an Eppendorf Thermomixer. After incubation, the plates were centrifuged for 20 minutes at 4680 rpm. From the supernatant, 150 μL was transferred to a new 96 well plate and 50 μL DMSO was added to ensure continued dissolution. Samples were measured on LC-UV at injection volumes of 1 and 8 μL. Peak areas were determined and compared to peak areas obtained using calibration curves of the test compounds in DMSO.

[10] = eLogD (lipophilicity; pH 7.4) by HPLC; assay type: physicochemical
Experimental: Test compounds were dissolved in DMSO at a concentration of 10 mM and further diluted with methanol:water 1:1. Samples were analyzed using gradient HPLC with three different isocratic mobile phases of 0.25% octanol in methanol (60, 65 and 70%) and 20 mM MOPS buffer (pH 7.4) with decylamine. If needed, (for low E log Doct compounds) the isocratic mobile phases were adjusted to e.g. 40, 45 and 50% methanol. Peaks were detected using a diode array at absorbance 220-320 nm.
Capacity factors data (k′_=(tr−_t0)/t0) obtained at various amounts of methanol were extrapolated to 0% methanol and k′w values are determined using a linear procedure. E log Doct (7.4) is calculated using a series of reference standards with known Log D values. Each experiment was performed in triplicate.

PAMPA (pH 7.4) = assay type: in vitro ADME; details: pH = 7.4
[11] = Mouse liver microsome stability (t1/2, Clint); details: 1 μM; 0.5 mg/ml microsomal protein
[12] = Human liver microsome stability (t1/2, Clint); details: 1 μM; 0.5 mg/ml microsomal protein
[13] = Guo et al Lancet Oncol. 2020; cited from earlier work
CYP2C8 = biological target: T1, CYP2C8 (Homo sapiens, UniProt P10632); test: in vitro; details: pooled liver microsomes, pH 7.4, probe amodiaquine
T1 sequence (P10632 1-490): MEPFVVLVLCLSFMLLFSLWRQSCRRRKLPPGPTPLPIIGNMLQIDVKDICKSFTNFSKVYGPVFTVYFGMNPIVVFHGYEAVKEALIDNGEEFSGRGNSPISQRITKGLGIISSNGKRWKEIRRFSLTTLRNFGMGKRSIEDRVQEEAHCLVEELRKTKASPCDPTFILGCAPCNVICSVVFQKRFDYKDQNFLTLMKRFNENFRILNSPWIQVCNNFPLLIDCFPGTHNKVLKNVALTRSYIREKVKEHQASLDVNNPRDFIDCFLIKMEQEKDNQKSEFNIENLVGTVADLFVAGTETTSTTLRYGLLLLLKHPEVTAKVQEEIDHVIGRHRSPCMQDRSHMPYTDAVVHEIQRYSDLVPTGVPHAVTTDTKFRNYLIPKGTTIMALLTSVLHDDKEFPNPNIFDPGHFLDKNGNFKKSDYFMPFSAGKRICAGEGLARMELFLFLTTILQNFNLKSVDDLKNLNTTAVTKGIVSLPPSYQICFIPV

CYP2C19 = CYP2C19 (Homo sapiens, UniProt P33261); test: in vitro; details: pooled liver microsomes, pH 7.4, probe mephenytoin
Sequence of CYP2C19 (P33261 whole entry): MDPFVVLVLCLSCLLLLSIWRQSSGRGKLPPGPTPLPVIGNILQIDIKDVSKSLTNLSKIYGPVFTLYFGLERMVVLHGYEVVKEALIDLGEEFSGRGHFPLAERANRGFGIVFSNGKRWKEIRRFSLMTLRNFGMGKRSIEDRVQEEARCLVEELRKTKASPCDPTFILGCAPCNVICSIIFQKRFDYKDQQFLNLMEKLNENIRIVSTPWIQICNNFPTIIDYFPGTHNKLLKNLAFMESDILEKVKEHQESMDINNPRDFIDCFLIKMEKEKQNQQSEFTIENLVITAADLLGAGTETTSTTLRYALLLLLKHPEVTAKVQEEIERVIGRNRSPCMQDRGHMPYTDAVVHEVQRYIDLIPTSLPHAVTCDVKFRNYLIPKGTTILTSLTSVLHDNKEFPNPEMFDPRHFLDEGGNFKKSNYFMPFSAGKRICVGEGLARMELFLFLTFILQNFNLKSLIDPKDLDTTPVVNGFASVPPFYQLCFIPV

SMILES: CC(C)[N+](C)(CCOC(=O)C1c2ccccc2Oc2ccccc21)C(C)C [Propantheline, reference compound]
- Human (% Reamining @2 hour) ([1]; human, 2 h, 2 μM, pH 7.4): 5.7%
- % Remaining at T120 ([1]; human, plasma, 2 h, 2 μM, pH 7.4): 20.8%
- half-life at 2 μM ([1]; human, plasma, pH 7.4): 0.943 h
- % Remaining at T120 ([2]; 2 μM, anti-coagulant K2-EDTA, 120 min): 84.6%
- half-life at 2 μM ([2]; plasma (K2EDTA), pH 7.4, anti-coagulant K2-EDTA): 7.5 h
- Beagle Dog (% Reamining @2 hour) ([3]; beagle, dog, 2 h, 2 μM, pH 7.4): 58.4%
- % Remaining at T120 ([3]; beagle, dog, plasma, 2 h, 2 μM, pH 7.4): 71.0%
- half-life at 2 μM ([3]; beagle, dog, plasma, pH 7.4): 4.87 h
- % Remaining at T120 ([4]; 2 h, 2 μM): 115.2%
- half-life at 2 μM [4]: > 2 h
- % Remaining at T120 ([5]; 2 h, 2 μM): 37.3%
- half-life at 2 μM [5]: 1.68 h
- CD-1 Mouse (% Reamining @2 hour) ([6]; CD-1, mouse, 2 h, pH 7.4): 27.1%

SMILES: CNS(=O)(=O)Nc1cccc(Cc2c(CN3CCC3)c3cc(Cl)c(OC(=O)N(C)C)cc3oc2=O)c1F [Compound 19]
- A549-pERK (10 nM, 2 h) ([7]; 10 nM, 2 h, phospho- to total protein ratio normalized to DMSO control (Table 9)): 59.9
- pIC50 ([7]; A549, 12-point dose): 7.30 to 7.40
- A549-CRAF BP 100 nM, 2 h [8]: 51.9
- Kinetic Solubility (PBS pH = 7.4; 4 hr) [9]: >80 uM
- eLogD (lipophilicity; pH = 7.4) [10]: 2.9
- PAMPA (pH = 7.4; Papp 10^−6 cm/s) (PAMPA (pH 7.4)): 51 10^−6 cm/s
- Mouse Clint [11]: 26 µL/min/mg
- Mouse Microsome (t1/2 min) [11]: 0.883 h
- Human Clint [12]: 37 µL/min/mg
- Human Microsome (t1/2 min) [12]: 0.633 h

SMILES: CNS(=O)(=O)Nc1nccc(Cc2c(C)c3ccc(Oc4ncccn4)cc3oc2=O)c1F [VS-6766]
- mean terminal half-life [13]: 53.6 h

SMILES: O=c1c(O)c(-c2ccc(O)c(O)c2)oc2cc(O)cc(O)c12 [Quercetin, reference compound]
- inhibition at 30 min, 10 µM (CYP2C8): 88.3%

SMILES: CC[C@H](C)C(=O)O[C@H]1C[C@@H](C)C=C2C=C[C@H](C)[C@H](CC[C@@H]3C[C@@H](O)CC(=O)O3)[C@H]21 [Lovastatin, reference compound]
- Human (% Reamining @2 hour) ([1]; 2 μM, plasma, 2 hour): 81.8%
- Beagle Dog (% Reamining @2 hour) ([3]; 2 μM, plasma, 2 hour): 94.1%
- CD-1 Mouse (% Reamining @2 hour) ([6]; plasma, 2 hour): 0.6%

SMILES: COc1ccc2[nH]c([S+]([O-])Cc3ncc(C)c(OC)c3C)nc2c1 (centres unmarked) [Omeprazole, reference compound]
- inhibition at 30 min, 10 µM (CYP2C19): 60.7%
